Tests used:
MAPK14 [1] = target: MAPK14 (UniProt Q16539); test: Enzyme Assay
MAPK14 (human) = MAPK14 (human) (UniProt Q16539); test: Cell-Based Assay; settings: monocyte
MAPK14 [2] = target: MAPK14 (UniProt Q16539); test: Enzyme Assay; remark: listed apart in the source

MAPK14, sequence (Q16539 whole entry, looked up): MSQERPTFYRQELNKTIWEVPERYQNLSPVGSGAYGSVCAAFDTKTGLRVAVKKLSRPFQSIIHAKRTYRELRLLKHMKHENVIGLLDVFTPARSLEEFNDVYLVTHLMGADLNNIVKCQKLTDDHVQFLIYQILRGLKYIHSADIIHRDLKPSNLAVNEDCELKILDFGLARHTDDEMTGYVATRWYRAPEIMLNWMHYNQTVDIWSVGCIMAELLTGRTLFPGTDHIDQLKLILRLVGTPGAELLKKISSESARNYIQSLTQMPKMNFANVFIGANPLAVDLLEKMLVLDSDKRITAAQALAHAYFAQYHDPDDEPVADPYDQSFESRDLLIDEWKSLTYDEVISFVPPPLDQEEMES
MAPK14 (human), sequence (Q16539 whole entry, looked up): as above

| IC50 (MAPK14 [1]) | IC50 (MAPK14 (human)) | IC50 (MAPK14 [2]) | SMILES |
| --- | --- | --- | --- |
| > 10 µM | > 5000 nM | > 2500 nM | O=[N+]([O-])c1ccc(-c2nc(-c3ccc(F)cc3)c(-c3ccccc3)[nH]2)cc1 |
| > 30 µM | > 5000 nM | > 2500 nM | CC(C)(C)C1=CC(O)(C(C)(C)C)CC(c2nc(-c3ccc(F)cc3)c(-c3ccncc3)[nH]2)=C1 (configuration not stated) |
| 5.6 µM | > 20000 nM | – | CCSc1ccc(-c2nc3n(c2-c2ccncc2)CCC3)cc1 |
| > 10 µM | – | – | CC(=O)OCCc1nc(-c2ccncc2)c(-c2ccc(F)cc2)[nH]1 |
| – | 1000 nM | – | CSc1cccc(-c2ncn(CCCN3CCOCC3)c2-c2ccncc2)c1 |
| – | 430 nM | – | Cc1cc(-c2[nH]c(-c3ccc([S+](C)[O-])cc3)nc2-c2ccc(F)cc2)ccn1 (configuration not stated) |
| – | > 5000 nM | – | C[S+]([O-])c1cccc(-c2ncn(CCCN3CCOCC3)c2-c2ccncc2)c1 (configuration not stated) |
| – | 590 nM | – | Fc1ccc(-c2ncn(CCCNCc3ccccc3)c2-c2ccncc2)cc1 |
| 3 µM | – | – | Cc1cc(-c2c(-c3ccc(F)cc3)ncn2CCCN2CCOCC2)ccn1 |
| – | 2300 nM | – | C[S+]([O-])c1ccc(-n2cnc(-c3ccc(F)cc3)c2-c2ccncc2)cc1 (configuration not stated) |
| 3.4 µM | 2700 nM | – | CSc1ccc(-c2nc3n(c2-c2ccncc2)CCC3)cc1 |
| > 10 µM | – | – | Fc1ccc(-c2ncn(CCCN3CCOCC3)c2-c2ccccn2)cc1 |
| > 10 µM | – | – | Fc1ccc(-c2c(-c3ccncc3)nc3n2CCC3)cc1 |
| > 30 µM | > 5000 nM | > 2500 nM | CCc1nc[nH]c1-c1ccncc1 |
| > 10 µM | – | – | Fc1ccc(-c2ncn(CCCN3CCOCC3)c2-c2cccnc2)cc1 |
| > 10 µM | > 10000 nM | – | CS(=O)(=O)c1ccc(-c2nc3n(c2-c2ccncc2)CCC3)cc1 |
| 0.05 µM | – | – | CC(=O)OCCn1cnc(-c2ccc(F)cc2)c1-c1ccncc1 |
| 0.25 µM | – | – | Clc1ccccc1-c1nc2n(c1-c1ccncc1)CCC2 |
| > 50 µM | – | – | Clc1nc2n(c1-c1ccncc1)CCC2 |
| > 10 µM | > 10000 nM | – | C[S+]([O-])c1ccc(-c2nc3n(c2-c2ccncc2)CCC3)cc1 (configuration not stated) |
| 0.05 µM | – | – | Clc1ccc(-c2nc3n(c2-c2ccncc2)CCC3)cc1 |
| 3.6 µM | 4200 nM | – | COc1ccc(-c2nc3n(c2-c2ccncc2)CCC3)cc1 |
| 0.03 µM | – | – | O=C1CN(c2ccc(-c3nc(-c4ccc(F)cc4)c(-c4ccncc4)[nH]3)cc2)NO1 |
| 3.2 µM | 700 nM | – | Brc1ccc(-c2nc3n(c2-c2ccncc2)CCC3)cc1 |
| 0.066 µM | 170 nM | – | Fc1ccc(-c2nc3n(c2-c2ccncc2)CCC3)cc1 |
| 0.44 µM | – | – | Fc1ccc(-c2ncn(C3CCN(Cc4ccccc4)CC3)c2-c2ccncc2)cc1 |
| 0.46 µM | – | – | C[S+]([O-])c1ccc(-c2nc(-c3cccs3)c(-c3ccncc3)[nH]2)cc1 (configuration not stated) |
| 0.04 µM | 50 nM | – | Clc1cccc(-c2nc3n(c2-c2ccncc2)CCC3)c1 |

From the Kinase Knowledgebase extract (Sharma et al. 2016)
